In brackets after ≈: the same amount, converted by molar mass.
Test: Solubility of 5′-guanylic acid in aqueous sodium chloride solutions (saturated mixed solution, supernatant concentration)
Details: for Concentration of 5′-Guanylic acid in mixed solution: 25° C.; for 5′-Guanylic acid concentration (g/L) in mixed solution: 40° C.; for solubility thermodynamic: aqueous sodium chloride solution, saline or isotonic
[1] = sodium chloride concentration 300 g/L, supernatant of saturated solution
[2] = sodium chloride concentration 310 g/L, supernatant of saturated solution
[3] = sodium chloride concentration 350 g/L, supernatant of saturated solution
[4] = sodium chloride concentration 360 g/L, supernatant of saturated solution
[5] = sodium chloride concentration 400 g/L, sodium chloride crystals precipitated

Description: With the aqueous 5′-guanylic acid solution added to different concentrations of aqueous sodium chloride solutions at temperature 40° C. and 25° C., the solubility of 5′-guanylic acid was examined.
Specifically, the aqueous 5′-guanylic acid solution was sufficiently dissolved in each of the aqueous sodium chloride solutions at 40° C. and 25° C., respectively, to prepare saturated solutions. As a result, 160 g/L to 360 g/L saturated solution of sodium chloride were prepared. […] Then, the concentrations (g/L) of 5′-guanylic acid in supernatants obtained by centrifuging each of the saturated solutions, i.e., the mixed solutions were measured.

With `Nc1nc2c(ncn2[C@@H]2O[C@H](COP(=O)(O)O)[C@@H](O)[C@H]2O)c(=O)[nH]1` [5′-Guanylic acid, 5′-guanylic acid] the “Concentration of 5′-Guanylic acid in mixed solution” value (from here on “Concentration of 5′-Guanylic acid”) [1] was 18.1 g/L, the “Concentration of 5′-Guanylic acid” value [2] was 18.2 g/L and the “Concentration of 5′-Guanylic acid” value [3] was 18.2 g/L. For the same compound, the “Concentration of 5′-Guanylic acid” value [4] was 18.2 g/L, the “Concentration of 5′-Guanylic acid” value [5] was 18.3 g/L and the “5′-Guanylic acid concentration (g/L) in mixed solution” value (“5′-Guanylic acid concentration (g/L)” below) [1] was 49.9 g/L. The “5′-Guanylic acid concentration (g/L)” value [2] was 49.5 g/L, the “5′-Guanylic acid concentration (g/L)” value [3] was 48.9 g/L and the “5′-Guanylic acid concentration (g/L)” value [4] was 49.8 g/L. For the same compound, the “5′-Guanylic acid concentration (g/L)” value [5] was 49.6 g/L, the solubility thermodynamic (25 °C, Concentration of 5′-Guanylic acid in mixed solution (g/L), sodium chloride concentration 160 g/L, supernatant of saturated solution) was 40.1 mg/mL (≈ 110 mM) and the solubility thermodynamic (25 °C, Concentration of 5′-Guanylic acid in mixed solution (g/L), sodium chloride concentration 200 g/L, supernatant of saturated solution) was 26.4 mg/mL (≈ 72.7 mM). For the same compound, the solubility thermodynamic (25 °C, Concentration of 5′-Guanylic acid in mixed solution (g/L), sodium chloride concentration 230 g/L, supernatant of saturated solution) was 22.2 mg/mL (≈ 61.1 mM), the solubility thermodynamic (25 °C, Concentration of 5′-Guanylic acid in mixed solution (g/L), sodium chloride concentration 280 g/L, supernatant of saturated solution) was 19.2 mg/mL (≈ 52.9 mM) and the solubility thermodynamic (25 °C, Concentration of 5′-Guanylic acid in mixed solution (g/L), sodium chloride concentration 420 g/L, sodium chloride crystals precipitated) was 18.2 mg/mL (≈ 50.1 mM). For the same compound, the solubility thermodynamic (40 °C, 5′-Guanylic acid concentration (g/L) in mixed solution, sodium chloride concentration 160 g/L, supernatant of saturated solution) was 86.5 mg/mL (≈ 238 mM), the solubility thermodynamic (40 °C, 5′-Guanylic acid concentration (g/L) in mixed solution, sodium chloride concentration 200 g/L, supernatant of saturated solution) was 62.7 mg/mL (≈ 173 mM) and the solubility thermodynamic (40 °C, 5′-Guanylic acid concentration (g/L) in mixed solution, sodium chloride concentration 230 g/L, supernatant of saturated solution) was 57.1 mg/mL (≈ 157 mM). It also gave a solubility thermodynamic (40 °C, 5′-Guanylic acid concentration (g/L) in mixed solution, sodium chloride concentration 280 g/L, supernatant of saturated solution) of 50.1 mg/mL (≈ 138 mM) and a solubility thermodynamic (40 °C, 5′-Guanylic acid concentration (g/L) in mixed solution, sodium chloride concentration higher than 400 g/L, sodium chloride crystals precipitated) of 48.7 mg/mL (≈ 134 mM).

Source: patent US12479879B2, “Method for preparing disodium 5′-guanylate heptahydrate crystal” (CJ CHEILJEDANG CORPORATION, priority 2019, dated 2025)
